Test results: US9066922B2, “Pharmaceutical composition for the treatment or prevention of diseases involving obesity, diabetes, metabolic syndrome, neuro-degenerative diseases and mitochondria dysfunction diseases” (MD BIOALPHA CO., LTD., priority 2005, dated 2015)

Assays:
AMP kinase = experiment: Phosphorylation of AMPK by β-lapachone in HepG2 cells; type: cell-based, Human; details: 10 μM, 30 min to 6 hr
Method: This example was carried out to confirm whether β-lapachone (Compound 1) has effects on phosphorylation of AMPK and ACC, which are intracellular energy-regulating proteins. In order to examine phosphorylation of AMP kinase and ACC (acetyl-CoA carboxylase) by β-lapachone, HepG2 cells (Human hepatocellular liver carcinoma cell line) were seeded onto a 6-well plate at a density of 1×10^5 cells per well, and cultured in a RPMI+10% FBS medium. After growing the cells for 24 hours, the culture medium was replaced with a serum-free RPMI medium, and cells were treated with β-lapachone (10 μM) for 30 min, 1 hr, 2 hr, 4 hr and 6 hr, respectively, in combination with a control (DMSO). Anti-ACC and Anti-pS79-ACC were used in order to observe phosphorylated ACC, whereas Anti-AMPK and Anti-pT172-AMPK were used in order to observe phosphorylated AMP kinase, respectively.

AMPK and ACC = experiment: Phosphorylation of AMPK & ACC in DIO C57BL/6 mice (Western blot); type: in vivo; details: 50 mg/kg daily oral
Method: In order to investigate anti-obesity effects of β-lapachone, β-lapachone was administered daily to diet-induced obesity (DIO) mice at a dose of 50 mg/kg via an oral route, and effects of β-lapachone on phosphorylation of AMPK and ACC, which play an important role in energy metabolism and lipogenesis in the liver and gonadal adipose tissues, were examined. […] Phosphorylated AMPK is believed to activate metabolism associated with energy. Whereas, it is believed that ACC, which is affected by activation of AMPK, is phosphorylated and lipogenic activity thereof is then inhibited, which will then exert some effects on lipid metabolism including inhibition of obesity.

[1] = system: mRNAs of PGC1α, NRF1, mtTFA, COX 4 and 7; experiment: Gene expression of proteins involved in mitochondrial biogenesis in DIO mice; type: in vivo, C57BL/6 mice; details: 50 mg/kg daily oral, liver and gonadal adipose tissues, vs control group
Method: β-lapachone was administered daily to diet-induced obesity (DIO) mice at a dose of 50 mg/kg via an oral route, and levels of mRNAs of peroxisome proliferator-activated receptor coactivator alpha 1 (PGC1α) (23,24), nuclear respiratory factor 1 (NRF1) (25-27), mitochondrial transcription factor (mtTFA) (25-27), and cytochrome c oxidase (COX) 4 and 7 (28,29) in the liver and gonadal adipose tissues were confirmed by real-time quantitative PCR. Proteins shown in FIG. 10 are representative enzymes responsible for regulation of biogenesis of mitochondria which plays a critical role in biosynthesis of energy in cells, and are also known to be involved in regulation of various physiological events.

[2] = system: mRNAs of PPAR alpha, PPAR gamma, AOX, AMPK alpha 1 and 2, CPT1; experiment: Expression of genes involved in energy metabolism in DIO mice; type: in vivo, C57BL/6 mice; details: 50 mg/kg daily oral
Method: β-lapachone was administered daily to diet-induced obesity (DIO) mice at a dose of 50 mg/kg via an oral route, and levels of transcripts of genes involved in energy metabolism in the liver and gonadal adipose tissues were measured using real-time quantitative PCR. Referring to enzymes shown in FIG. 11, PPAR alpha and gamma are enzymes responsible for transcriptional regulation of enzymes involved in energy expenditure (30,31), AMPK plays a central role in the maintenance of cell energy homeostasis by sensing the intracellular AMP/ATP ratio, and AOX catalyzes to activate oxidative phosphorylation via oxidation of acyl CoA which resides in a certain step of a lipid metabolism process (32,33). In addition, CPT1 is also an enzyme involved in energy metabolism, and is well-known as an enzyme that enables the passage of long chain acyl CoA into mitochondria, not taking a route toward synthesis of triacylglycerol (34,35). […] Increased expression levels of such genes show the possibility that β-lapachone can be as therapeutic for the treatment of energy metabolism-related diseases.

UCP 1 & 2 genes = experiment: Expression of transcripts of UCP1 and UCP2 genes in DIO mice; type: in vivo, C57BL/6 mice; details: 50 mg/kg daily oral, liver and gonadal adipose tissues
Method: β-lapachone was administered daily to diet-induced obesity (DIO) mice at a dose of 50 mg/kg via an oral route, and levels of transcripts of uncoupling protein 1 & 2 (UCP 1 & 2) genes in the liver and gonadal adipose tissues was measured using real-time quantitative PCR. UCP 1 & 2 are enzymes that perform energy expenditure via heat generation, and it is reported that these enzymes function to consume energy without involving production of reactive oxygen species (ROS) and are also closely correlated with the incidence of obesity (38,39).

[3] = system: leptin receptor-deficient (ob/ob) mice; experiment: Changes in leptin receptor-deficient (ob/ob) mice by administration of β-lapachone; type: in vivo
Method: (§1) This is because fat degradation is facilitated and therefore sufficient amounts of energy are generated, despite similar dietary intake. […] In order to examine fat accumulation in the liver tissue, animals were laparotomized 56 days after administration of β-lapachone, and H&E staining (FIG. 21C) and EM examination (FIG. 21D) were performed on the liver tissue.

[4] = system: leptin-deficient (ob/ob) mice; experiment: as above; type: in vivo; details: 56 days, vs control group
Method: as §1

DIO C57BL/6 mice = experiment: Spontaneous locomotor activity in DIO C57BL/6 mice; type: in vivo; details: 3 hours after administration, measured for 7 hours, vs vehicle and control groups
Method: β-lapachone was administered to DIO C57BL/6 mice, and 3 hours later, spontaneous locomotor activity was measured using Versa MAX Activity Monitors & Analyzer (AccuSan Instruments, Columbus, Ohio). The monitor used to measure motion of animals was a 41 cm×41 cm Plexiglas chamber (height: 30 cm) equipped with infrared rays at intervals of 2.5 cm along the x- and y-axes, respectively, whereby 16 scanning lines are respectively arranged on front/rear and right/left sides of the chamber. In order to distinguish between spontaneous locomotor and stereotypic/grooming behavior, animal activity was measured by taking continuous interference of two different scanning lines caused by mice as an effective determination standard. A β-lapachone-administered group, a vehicle-administered group and a control group were respectively placed in each measuring apparatus, and activity and motion of animals were measured for 7 hours. For acclimation of animal to new environment, mice were placed in the apparatus 2 hours prior to measurement.

Sprague-Dawley rats = experiment: Acute toxicity test, peritoneal administration; type: in vivo; details: peritoneal, 50, 100 and 200 mg/kg, observed for 2 weeks
[5] = liver and gonadal adipose tissues

CC1(C)CCC2=C(O1)c1ccccc1C(=O)C2=O [Compound 1, β-Lapachone]
phosphorylation of AMP kinase (Anti-pT172-AMPK), onset (AMP kinase): could be observed from the initial time (30 min)
phosphorylation of AMP kinase, duration of effect (AMP kinase): lasted up to 6 hours
phosphorylation of AMPK and ACC in the gonadal and liver tissues (AMPK and ACC): has an effect on phosphorylation of AMPK and ACC
COX 4 mRNA level [1]: increased levels of mRNAs
COX 7 mRNA level [1]: increased levels of mRNAs
NRF1 mRNA level [1]: increased levels of mRNAs
PGC1α mRNA level [1]: increased levels of mRNAs
mtTFA mRNA level [1]: increased levels of mRNAs
PPAR alpha mRNA level [2, 5]: not changed
PPAR gamma mRNA level [2, 5]: about two-fold increases
AMPK alpha 1 mRNA level ([2]; vs control group): increased levels in mRNAs
AMPK alpha 2 mRNA level ([2]; vs control group): increased levels in mRNAs
acyl CoA oxidase (AOX) mRNA level ([2]; vs control group): increased levels in mRNAs
carnitine palmitoyltransferase 1 mRNA level ([2]; vs control group): increased levels in mRNAs
UCP1 mRNA level (UCP 1 & 2 genes): significant increases in mRNA levels
UCP2 mRNA level (UCP 1 & 2 genes): significant increases in mRNA levels
dietary intake/body weight ([3]; 150 or 200 mg/kg daily oral, 56 days): notably decreased around at 10 days of administration
body weight ([3]; 150 or 200 mg/kg daily oral, 56 days, vs control group): continuous weight loss for 56 days
H&E staining on liver tissue: fat vacuoles ([3]; 56 days after administration, vs control group): almost all fat vacuoles have disappeared
EM examination on liver tissues: mitochondrial numbers ([3]; 56 days, vs control group): significant increases in mitochondrial numbers
EM examination on muscle tissue of limbs: mitochondrial shape ([3]; 56 days, vs control group): recovery of normal mitochondrial shape
EM examination on muscle tissue of limbs: numbers of mitochondria ([3]; 56 days, vs control group): significant increases in numbers of mitochondrial
EM examination on liver tissues: fat vacuoles and glycogen stores [4]: remarkably decreased fat vacuoles and glycogen stores
spontaneous locomotor activity (DIO C57BL/6 mice): significant difference in motion and locomotor activity
mortality (Sprague-Dawley rats): none of the animals died
